Experimental data: paper PMC12770539 (Scientific Reports, 2025)

Columns and labels:
[1] = cited from earlier work
[2] = oral administration, 30 mg/kg dose; cited from earlier work
TGA analysis = type: physicochemical
[3] = cited from earlier work; remark: listed apart in the source

**Q.** With `C[C@@H]1O[C@@H]1P(=O)(O)O` [Fosfomycin calcium] as the compound, how does the absorption ([1]; oral) read?
**A.** The absorption was 10–30%.

**Q.** Which results are given for `C[C@@H]1O[C@@H]1P(=O)(O)O.NC(CO)(CO)CO` [Fosfomycin tromethamine]?
**A.** elimination half-life [1]: 2 h; serum concentration (Cmax) ([1]; single 3-gm dose): 26.1 (± 9.1) µg/mL

**Q.** For `C[C@@H]1O[C@@H]1P(=O)(O)O` [Fosfomycin], which “calculated Tmax” value [2] is on record?
**A.** The value was 3.00 ± 0.00 h.

**Q.** And the “mean peak concentration (Cmax)” value [2]?
**A.** Its value is 3600 ± 960 ng/mL.

**Q.** What about the “temperature at which degradation initiates (TGA)” value (TGA analysis) of the same compound?
**A.** Its value is 150 °C.

**Q.** And the “temperature range of marked weight loss (TGA)” value (TGA analysis)?
**A.** The value was 200–400 °C.

**Q.** For `Cc1ncc([N+](=O)[O-])n1CCO` [Metronidazole], which “local irritation, share of users” value ([3]; vaginal administration) is on record?
**A.** The value was 10–15%.

**Q.** And the “cure rate for bacterial vaginosis” value ([3]; vaginal suppositories, within 7 days)?
**A.** The value was ~80%.
